Source: article PMC11433014, “In Vitro In Silico Screening Strategy and Mechanism of Novel Tyrosinase Inhibitory Peptides from Nacre of Hyriopsis cumingii” (Marine Drugs, 2024)
Entries after “also recorded” stand apart in the source; their conditions may differ. Where no end group is shown, it is not given here.

Key:
[1] = system: glutathione peroxidase (GSH-Px); experiment: GSH-Px activity in B16F10 cells; type: cell-based, mouse; details: 50 μg/mL (highest treatment concentration; Kojic acid 50 μg/mL)
Experimental: (§1) Cell culture and treatment methods were the same as described in Section 3.10. The activities of catalase (CAT), glutathione peroxidase (GSH-Px), and superoxide dismutase (SOD) were determined using the assay kit from Nanjing Jianjian Bioengineering Research Institute (Nanjing, China).

[2] = system: superoxide dismutase (SOD); experiment: SOD activity in B16F10 cells; type: cell-based, mouse; details: 50 μg/mL (highest treatment concentration; Kojic acid 50 μg/mL)
Experimental: as §1

catalase (CAT) = experiment: CAT activity in B16F10 cells; type: cell-based, mouse; details: 50 μg/mL (highest treatment concentration; Kojic acid 50 μg/mL)
Experimental: as §1

[3] = system: melanin production in B16F10 cells; experiment: Melanin content of B16F10 cells; type: cell-based, mouse; details: 50 μg/mL (highest treatment concentration; Kojic acid 50 μg/mL), 48 h, absorbance 405 nm, vs control
Experimental: Cells in the logarithmic growth phase were cultured at a density of 4 × 10^5 cells per well in 6-well plates. Following a 24 h incubation period, the culture supernatant was discarded. Experimental groups were established, including a control group, a positive control group treated with Kojic acid at a concentration of 50 µg/mL [40], and peptide-treated groups at concentrations of 10, 25, and 50 µg/mL. After an additional 24 h of incubation, the cells were lysed, and the resulting cell lysates were subjected to centrifugation at 12,000 rpm for 10 min. The reaction mixture was prepared by combining 50 µL of the cell lysate supernatant, 50 µL of 1 mg/mL L-DOPA, and 50 µL of PBS buffer. This mixture was incubated at 37 °C for 1 h. Subsequently, the level of dopamine formation was quantified spectrophotometrically at a wavelength of 475 nm.
The cell culture stage for melanin content determination was as follows: The cells were washed twice with PBS buffer after 48 h of peptide treatment. Trypsin digestion was performed, and the cells were collected. […] Then, 200 µL of the supernatant was transferred to a 96-well plate, and the absorbance was measured at 405 nm. The melanin content was then expressed as a percentage of the control group.

[4] = system: tyrosinase activity in B16F10 cells; experiment: Intracellular tyrosinase activity in B16F10 cells; type: cell-based, mouse; details: 50 μg/mL (highest treatment concentration; Kojic acid 50 μg/mL), 24 h, L-DOPA, 475 nm, vs control
Experimental: Cells in the logarithmic growth phase were cultured at a density of 4 × 10^5 cells per well in 6-well plates. Following a 24 h incubation period, the culture supernatant was discarded. Experimental groups were established, including a control group, a positive control group treated with Kojic acid at a concentration of 50 µg/mL [40], and peptide-treated groups at concentrations of 10, 25, and 50 µg/mL. After an additional 24 h of incubation, the cells were lysed, and the resulting cell lysates were subjected to centrifugation at 12,000 rpm for 10 min. The reaction mixture was prepared by combining 50 µL of the cell lysate supernatant, 50 µL of 1 mg/mL L-DOPA, and 50 µL of PBS buffer. This mixture was incubated at 37 °C for 1 h. Subsequently, the level of […] formation was quantified spectrophotometrically at a wavelength of 475 nm. The activity of tyrosinase was reported as a percentage relative to the blank control.

[5] = ABTS free radical scavenging capacity (kit); details: synthetic peptides, 1 mg/mL; ranking among the three peptides (p < 0.05)
Experimental: (§2) Use a concentration of 1 mg/mL of the enzymatic hydrolysate to assess the free radical scavenging rate. DPPH and ABTS free radical scavenging capacity assays were conducted using kits from Grace Biotechnology Co., Ltd. (Suzhou, Jiangsu, China). The subsequent determination of the inhibitory rate of peptide tyrosinase synthesis and the antioxidant measurement methods refer to this step.

[6] = DPPH free radical scavenging capacity (kit); details: synthetic peptides, 1 mg/mL; comparison among the three peptides, in words
Experimental: as §2

Tyrosinase = target: T1, Tyrosinase (Agaricus bisporus, UniProt C7FF04); experiment: Tyrosinase inhibitory activity assay (mushroom tyrosinase, L-tyrosine substrate); type: biochemical; details: 0.5 mg/mL L-tyrosine, PBS, 20 μL tyrosinase (500 U/mL), preincubation 37 °C 10 min, reaction 10 min at 37 °C; mean ± SD of at least three experiments
T1 construct: purchased Shanghai Yuanye Biotechnology Co., Ltd. (Shanghai, China)
T1 sequence (C7FF04 1-392): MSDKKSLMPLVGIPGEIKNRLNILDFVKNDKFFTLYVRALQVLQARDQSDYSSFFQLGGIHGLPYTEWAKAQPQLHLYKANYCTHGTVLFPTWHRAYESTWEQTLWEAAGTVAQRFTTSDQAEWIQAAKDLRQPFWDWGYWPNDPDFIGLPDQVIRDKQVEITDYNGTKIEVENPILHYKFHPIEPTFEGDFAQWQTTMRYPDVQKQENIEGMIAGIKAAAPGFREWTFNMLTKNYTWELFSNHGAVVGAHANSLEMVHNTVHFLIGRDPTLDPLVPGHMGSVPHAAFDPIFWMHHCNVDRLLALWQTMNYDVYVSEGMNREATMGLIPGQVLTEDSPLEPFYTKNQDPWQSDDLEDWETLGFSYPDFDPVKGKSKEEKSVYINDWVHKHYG
Experimental: Tyrosinase (from Mushroom, 500 U/mg) and PBS buffer were purchased from Shanghai Yuanye Biotechnology Co., Ltd. (Shanghai, China). L-tyrosine was obtained from Shanghai Macklin Biochemical Technology Co., Ltd. (Shanghai, China).
A solution of L-tyrosine at a concentration of 0.5 mg/mL, along with the sample solution and PBS buffer, was sequentially introduced into a 96-well plate. The mixture was thoroughly homogenized and subsequently incubated at 37 °C for 10 min. Following this incubation, 20 μL of tyrosinase solution (500 U/mL) was added to each well, and the plate was promptly placed in an enzyme marker for a reaction period of (10 min ± 5 s) at 37 °C.

B16F10 cells = experiment: Cytotoxicity to B16F10 cells (CCK-8); type: cell-based, mouse; details: 10–800 μg/mL
Experimental: B16F10 cells were purchased from Hunan FengHui Biotechnology Co., Ltd. (Changsha, Hunan, China). Cell cultures of B16F10, specifically from generations 10 to 25, were maintained in a medium consisting of DMEM supplemented with 10% fetal bovine serum and 1% antibiotic–antifungal solution, under conditions of 5% CO2 at 37 °C.
Cell viability was evaluated utilizing the Cell Counting Kit-8 (CCK-8) assay. During the logarithmic growth phase, 100 µL of cell suspension, containing 3000 cells per well, was transferred into 96-well plates. Following a 24 h incubation period at 37 °C, the supernatant was discarded. Wells containing 100 µL of medium were designated as blank controls. […]

Compound: O=c1cc(CO)occ1O [Kojic acid]
- increase of GSH-Px activity [1]: 25.56%
- increase of SOD activity [2]: 68.81%
- increase of CAT activity (catalase (CAT)): 32.04%
- decrease of melanin content [3]: 17.39%
- decrease of intracellular tyrosinase activity [4]: 16.64%

Compound: GYHFHSYP [GYHFHSYP, Gly-Tyr-His-Phe-His-Ser-Tyr-Pro]
- ABTS radical scavenging ability (ranking) [5]: GYHFHSYP > YPNPY > YVPGHG (p < 0.05)
- DPPH radical scavenging effect [6]: remained consistent at a concentration of 1 mg/mL (p > 0.05)
- IC50 (Tyrosinase): > 5000 µM

Compound: YPNPY [YPNPY, Tyr-Pro-Asn-Pro-Tyr]
- viability of B16F10 cells (B16F10 cells): ~100%
- cytotoxicity / viability vs control group (B16F10 cells; in words): no significant difference in the viability of B16F10 cells; also recorded: did not exhibit any cytotoxic effects
- IC50 (Tyrosinase): 545 ± 28 µM

Compound: YVPGHG [YVPGHG, Tyr-Val-Pro-Gly-His-Gly]
- ABTS radical scavenging ability (ranking) [5]: GYHFHSYP > YPNPY > YVPGHG (p < 0.05)
- DPPH radical scavenging effect [6]: remained consistent at a concentration of 1 mg/mL (p > 0.05)
- IC50 (Tyrosinase): > 50000 µM
